Among the data in PubChem BioAssay AID330 (DTP/NCI, 2004) are T/C values, retold here.

Molecules are shown by their SMILES. Values joined by “and” are separate entries in the source; they are usually repeats but may differ in a detail not shown here. Identical values can stand only once. Inconclusive results and toxic doses are left out.

The test system of the assay is P388 leukemia ip, CD2F1 mice, survival T/C. The assay is described as follows: NCI In Vivo Anticancer Drug Screen. Data for tumor model P388 Leukemia (intraperitoneal) in CD2F1 (CDF1) mice. The note with it: endpoint: median survival time, higher = longer survival. Summed up:
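Mice carrying the transplanted tumor received test compound or vehicle. Survival was recorded in each group, and the value is the treated-group measurement divided by that of the vehicle-treated control group.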

Setting [1] is: dose: 50.0 mg/kg/injection, schedule: Q01DX005 (ip), vehicle: saline with Tween-80.
Where [2] appears, read: dose: 100.0 mg/kg/injection, schedule: Q01DX005 (ip), vehicle: saline with Tween-80.
The mark [3] stands for this setting: dose: 50.0 mg/kg/injection, schedule: Q01DX009 (ip), vehicle: saline.
The mark [4] stands for this setting: dose: 200.0 mg/kg/injection, schedule: Q01DX009 (ip), vehicle: saline.
Setting [5] is: dose: 50.0 mg/kg/injection, schedule: Q01DX009 (ip), vehicle: saline with Tween-80.
Setting [6] is: dose: 100.0 mg/kg/injection, schedule: Q01DX009 (ip), vehicle: saline with Tween-80.
Setting [7] is: dose: 200.0 mg/kg/injection, schedule: Q01DX009 (ip), vehicle: saline with Tween-80.
Where [8] appears, read: dose: 25.0 mg/kg/injection, schedule: Q01DX009 (ip), vehicle: Klucel (hydroxypropylcellulose) (HPC).
Setting [9] is: dose: 50.0 mg/kg/injection, schedule: Q01DX009 (ip), vehicle: Klucel (hydroxypropylcellulose) (HPC).
The mark [10] stands for this setting: dose: 100.0 mg/kg/injection, schedule: Q01DX009 (ip), vehicle: saline.
The mark [11] stands for this setting: dose: 100.0 mg/kg/injection, schedule: Q01DX009 (ip), vehicle: Klucel (hydroxypropylcellulose) (HPC).
Setting [12] is: dose: 50.0 mg/kg/injection, schedule: Q01DX005 (ip), vehicle: Klucel (hydroxypropylcellulose) (HPC).
Where [13] appears, read: dose: 100.0 mg/kg/injection, schedule: Q01DX005 (ip), vehicle: Klucel (hydroxypropylcellulose) (HPC).

On to `Cc1nc2c(O)ccc(O)c2nc1C`, for which the T/C is 99 % of control (dose: 3.75 mg/kg/injection, schedule: Q01DX009 (ip), vehicle: saline with Tween-80); 100 % of control (dose: 3.75 mg/kg/injection, schedule: Q04DX003 (ip), vehicle: saline with Tween-80); 94 % of control (dose: 7.5 mg/kg/injection, schedule: Q01DX009 (ip), vehicle: saline with Tween-80); 99 % of control (dose: 7.5 mg/kg/injection, schedule: Q04DX003 (ip), vehicle: saline with Tween-80); 88 % of control (dose: 15.0 mg/kg/injection, schedule: Q01DX009 (ip), vehicle: saline with Tween-80); 106 % of control (dose: 15.0 mg/kg/injection, schedule: Q04DX003 (ip), vehicle: saline with Tween-80). Further, the T/C was 95 % of control (dose: 30.0 mg/kg/injection, schedule: Q01DX009 (ip), vehicle: saline with Tween-80); 109 % of control (dose: 30.0 mg/kg/injection, schedule: Q04DX003 (ip), vehicle: saline with Tween-80); 110 % of control (dose: 60.0 mg/kg/injection, schedule: Q01DX009 (ip), vehicle: saline with Tween-80); 109 % of control (dose: 60.0 mg/kg/injection, schedule: Q04DX003 (ip), vehicle: saline with Tween-80).

`Cc1cc(C)n(-c2ccc(-c3cc(=O)c4ccccc4o3)cc2)n1`: the T/C is 92 % of control under setting [1] and 90 % of control under setting [2].

Regarding `Nc1ccc2[se]ccc2c1`, the T/C reads like this: (dose: 12.5 mg/kg/injection, schedule: Q01DX009 (ip), vehicle: suspension in saline) 105 % of control; (dose: 25.0 mg/kg/injection, schedule: Q01DX009 (ip), vehicle: suspension in saline) 100 % of control; under setting [3], 91 % of control; (dose: 50.0 mg/kg/injection, schedule: Q01DX009 (ip), vehicle: suspension in saline) 100 % of control; under setting [4], 100 % of control.

As to `O=C(Nc1ccc(C2=NCCN2)cc1)c1cc2cc(C3=NCCN3)ccc2o1`, the T/C by setting is: (dose: 12.5 mg/kg/injection, schedule: Q04DX003 (ip), vehicle: suspension in saline) 100 % of control; (dose: 25.0 mg/kg/injection, schedule: Q04DX003 (ip), vehicle: suspension in saline) 102 % of control; (dose: 50.0 mg/kg/injection, schedule: Q04DX003 (ip), vehicle: suspension in saline) 100 % of control.

Take `CC(=O)OC1CCN(C)CC1CCl` (stereo not given): the T/C by setting is: (dose: 12.5 mg/kg/injection, schedule: Q01DX009 (ip), vehicle: saline) 110 % of control; (dose: 25.0 mg/kg/injection, schedule: Q01DX009 (ip), vehicle: saline) 105 % of control; under setting [3], 105 % of control and 114 % of control.

In the case of `NC(=O)c1cc([N+](=O)[O-])ccc1N=NN(CCCl)Cc1ccccc1`, the T/C was 111 % of control (dose: 100.0 mg/kg/injection, schedule: Q04DX003 (ip), vehicle: Klucel (hydroxypropylcellulose) (HPC)); 122 % of control (dose: 200.0 mg/kg/injection, schedule: Q04DX003 (ip), vehicle: Klucel (hydroxypropylcellulose) (HPC)); 162 % of control (dose: 400.0 mg/kg/injection, schedule: Q04DX003 (ip), vehicle: Klucel (hydroxypropylcellulose) (HPC)).

Turning to `CCOC(=O)/C(C#N)=C/Nc1cc(C(=O)OCC)cc2c(OC)c(OC)ccc12`, the T/C by setting is: (dose: 12.5 mg/kg/injection, schedule: Q01DX009 (ip), vehicle: distilled water + Tween-80) 97 % of control; (dose: 25.0 mg/kg/injection, schedule: Q01DX009 (ip), vehicle: distilled water + Tween-80) 93 % of control; (dose: 50.0 mg/kg/injection, schedule: Q01DX009 (ip), vehicle: distilled water + Tween-80) 106 % of control; (dose: 100.0 mg/kg/injection, schedule: Q01DX009 (ip), vehicle: distilled water + Tween-80) 106 % of control; (dose: 200.0 mg/kg/injection, schedule: Q01DX009 (ip), vehicle: distilled water + Tween-80) 110 % of control.

Turning to `CC(C)CCCN(CCCC(C)C)CC(O)c1cc2c(c3ccccc13)CCCC2` (stereo not given), the T/C by setting is: under setting [1], 113 % of control; under setting [2], 103 % of control; (dose: 200.0 mg/kg/injection, schedule: Q01DX005 (ip), vehicle: saline with Tween-80) 113 % of control.

Consider `O=C(O)CC(=O)Nc1ccccc1S`, for which the T/C runs as follows: under setting [5], 102 % of control; under setting [6], 90 % of control; under setting [7], 101 % of control.

With `CCOC(=O)c1cn[nH]c1N`, the T/C was 108 % of control under setting [8] and 93 % of control under setting [9].

Regarding `CCC1(c2ccccc2)C(C#N)C(=O)NC(=O)C1C#N` (stereo not given), the T/C was 106 % of control (dose: 60.0 mg/kg/injection, schedule: Q01DX005 (ip), vehicle: saline with Tween-80); 99 % of control (dose: 120.0 mg/kg/injection, schedule: Q01DX005 (ip), vehicle: saline with Tween-80); 101 % of control (dose: 240.0 mg/kg/injection, schedule: Q01DX005 (ip), vehicle: saline with Tween-80).

As to `CN(C)c1ccc(/C=C(\C#N)C(N)=S)cc1`, the T/C reads like this: under setting [3], 100 % of control; under setting [10], 100 % of control; under setting [4], 106 % of control.

On to `c1ccc2c(NCC3CCNCC3)c3ccccc3nc2c1`, for which the T/C (dose: 25.0 mg/kg/injection, schedule: Q04DX002 (ip), vehicle: saline with Tween-80) was 124 % of control and the T/C (dose: 50.0 mg/kg/injection, schedule: Q04DX002 (ip), vehicle: saline with Tween-80) was 112 % of control.

Turning to `Cc1ccc(C(=O)N/N=C/c2cccc(C(N)=S)c2)cc1`, the T/C runs as follows: (dose: 100.0 mg/kg/injection, schedule: Q01DX001 (ip), vehicle: saline) 88 % of control; (dose: 200.0 mg/kg/injection, schedule: Q01DX001 (ip), vehicle: saline) 87 % of control; (dose: 400.0 mg/kg/injection, schedule: Q01DX001 (ip), vehicle: saline) 86 % of control.

Regarding `CC(=O)NC(C=O)C(O)C(O)C(O)C(=O)O` (stereo not given), the T/C runs as follows: under setting [8], 107 % of control; under setting [9], 100 % of control; under setting [11], 107 % of control.

For `O=C(NNC(=S)Nc1ccccc1)c1ccncc1`, the T/C is 107 % of control under setting [5], 107 % of control under setting [6] and 107 % of control under setting [7].

For `NCc1ccc(O)c(O)c1O`, the T/C is 121 % of control and 123 % of control under setting [3]; 118 % of control and 120 % of control under setting [10]; 124 % of control and 88 % of control under setting [4].

Take `O=c1[nH]cc(C(O)Cc2ccccc2)c(=O)[nH]1` (stereo not given): the T/C is 104 % of control under setting [6]; 100 % of control under setting [7]; 100 % of control (dose: 400.0 mg/kg/injection, schedule: Q01DX009 (ip), vehicle: saline with Tween-80).

On to `O=C1c2ccccc2CCCC12OC2c1ccncc1` (stereo not given), for which the T/C runs as follows: under setting [9], 90 % of control; under setting [11], 96 % of control; (dose: 200.0 mg/kg/injection, schedule: Q01DX009 (ip), vehicle: Klucel (hydroxypropylcellulose) (HPC)) 90 % of control.

For `C=C(Br)CC(N)C(=O)O` (stereo not given), the T/C is, setting by setting: under setting [12], 116 % of control; under setting [13], 106 % of control.

Regarding `COc1ccc(Nc2nnc(-c3ccc4c(c3)OCO4)o2)cc1`, the T/C is 100 % of control under setting [12]; 93 % of control under setting [13]; 97 % of control (dose: 200.0 mg/kg/injection, schedule: Q01DX005 (ip), vehicle: Klucel (hydroxypropylcellulose) (HPC)).

Consider `CNCCN=c1ccc2c3c1c(O)c1c(O)ccc(=O)c1c3[nH]n2CCNCCO`, for which the T/C by setting is: (dose: 1.56 mg/kg/injection, schedule: Q04DX002 (ip), vehicle: water) 167 % of control and 186 % of control; (dose: 3.12 mg/kg/injection, schedule: Q04DX002 (ip), vehicle: water) 177 % of control and 268 % of control; (dose: 6.25 mg/kg/injection, schedule: Q04DX002 (ip), vehicle: water) 275 % of control and 277 % of control; (dose: 12.5 mg/kg/injection, schedule: Q04DX002 (ip), vehicle: water) 275 % of control and 277 % of control; (dose: 25.0 mg/kg/injection, schedule: Q04DX002 (ip), vehicle: water) 90 % of control.

With `CC1C2CCC(C2)C1CNCC1C2CCC(C2)C1C` (stereo not given), the T/C was 100 % of control (dose: 12.5 mg/kg/injection, schedule: Q01DX005 (ip), vehicle: saline with Tween-80); 103 % of control (dose: 25.0 mg/kg/injection, schedule: Q01DX005 (ip), vehicle: saline with Tween-80); 101 % of control and 105 % of control under setting [1].

Turning to `O=C(O)c1ccc2cc3ccccc3cc2c1`, the T/C reads like this: under setting [6], 99 % of control; under setting [7], 91 % of control.
